Assay results from patent US12458630B2, “Combination therapy for cancer” (The Regents of the University of California, priority 2020, dated 2025).

Assays:
KC6141 cells = test: TMR-DEX macropinosome uptake assay; format: cell-based, mouse; conditions: WT and IKKα-KD KC6141 cells
Description: Cell imaging. Immunostaining was performed as described^44. Cells were cultured on coverslips and fixed in 4% PFA for 10 min at room temperature. After washing twice in PBS, cells were incubated in PBS containing 10% FBS to block nonspecific sites of antibody adsorption. The cells were then incubated with the appropriate primary antibodies (diluted 1:100) and secondary antibodies (diluted 1:500) in PBS containing 10% FBS with or without 0.1% saponin. For cell macropinosome visualization, 24 hrs after seeding, the cells were serum starved for 18 hrs. Macropinosomes were marked using a high-molecular-mass (70 KD) TMR-Dextran (Invitrogen)-uptake assay, wherein TMR-DEX was added to serum-free medium at a final concentration of 1 mg/ml for 30 min at 37° C. At the end of the incubation period, the cells were rinsed five times in cold PBS and immediately fixed in 4% PFA. For tissue macropinosome visualization^45, fresh pancreata were cut into pieces with an approximate 5-mm cuboidal shape. […]
Quantification and statistics. To quantify the number of LC3 puncta, a total of 30 cells were recorded and analyzed using the LAS X measurement program on the TCS SPE Leica. Macropinosomes were quantified by using the ‘Analyze Particles’ feature in ImageJ (National Institutes of Health). […]

[1] = test system: 1444 primary human PDAC cells; test: Cell viability assay (CCK-8); format: cell-based
Description: (§1) In some embodiments, cells were plated in 96-well plates coated with or without ECM at a density of 3000 cells (MIA PaCa-2, 1444, 1305, COLO 357/FG) or 1500 cells (KC6141) per well and incubated overnight prior to treatment. EIPA (10.5 μM), IPI549 (600 nM), MBQ-167 (500 nM), MRT68921 (600 nM) or erlotinib (2 μM, Sigma), ML385 (10 μM, Sigma), HCQ (10 μM or 80 μM) or their combinations were added to the wells for 24, 72 or 96 hrs. Next, 10 μL of CCK-8 was added to each well. The optical density was read at 450 nm using a microplate reader (FilterMax F5, Molecular Devices, USA) at day 0, 1, 2, 3, and 4. For glutamine-deprivation assays, cells in 96-well plates were rinsed briefly in PBS and incubated in the 0.2 mM glutamine. Glutamine-free DMEM medium was supplemented with 0.2 mM glutamine in the presence of 10% dialyzed FBS and 25 mM HEPES. For glucose-deprivation assays, cells in 96-well plates were rinsed briefly in PBS and incubated in the 0.5 mM glucose. Glucose-free DMEM medium was supplemented with 0.5 mM glucose in the presence of 10% dialyzed FBS and 25 mM HEPES. For some conditions, the medium was supplemented with a final concentration of 2% BSA (Fraction V, fatty-acid-, nuclease and protease-free, Calbiochem). For all experiments, media were replaced every 24 hrs. Viable cell counts were obtained using CCK-8 assay described as above.

[2] = test system: 1305 primary human PDAC cells; test: Cell viability assay (CCK-8); format: cell-based; conditions: IKKα^low 1305 cells, 3 days
Description: as §1

CCN(c1nc(N)c(C(=O)N=C(N)N)nc1Cl)C(C)C [EIPA, 5-(N-ethyl-N-isopropyl) amiloride]
MP (macropinosomes) (KC6141 cells): inhibited MP
sensitivity of IKKα^Δ and ATG7^Δ cells to EIPA (CCK-8) ([1]; IKKα^Δ / ATG7^Δ 1444 cells (functional TP53)): highly sensitive
cell viability (total viable cells relative to day 0) ([1]; WT, IKKα^Δ and ATG7^Δ 1444 cells, complete medium, EIPA 10.5 μM, days 0-4): suppression of cell viability
sensitivity to single agent (cell viability) [2]: very sensitive
